The record followed here is the METLIN SMRT retention time set (Domingo-Almenara et al. 2019).

This data set in a line: gradient 5% acetonitrile 3 min, to 50% in 2 min, to 85% in 15 min, held 3 min, 100 µL/min. Conditions: column: Zorbax Extend-C18 2.1 x 50 mm; eluents: water / acetonitrile, 0.1% formic acid. The procedure, abridged:
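The mobile phases were water and acetonitrile, each with 0.1% formic acid, pumped at 100 μL/min through a Zorbax Extend-C18 column (2.1 × 50 mm, 1.8 μm). Pure standards were injected as mixtures of ~100 molecules and detected by a quadrupole time-of-flight mass spectrometer in positive and negative ionization mode. Retention time came from computationally picked adduct peaks, each inspected by hand.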
In turn, `O=C(Cn1ccn2nc(-c3ccc(F)cc3)c(CO)c2c1=O)Nc1ccc(F)c(F)c1` showed an RP-LC retention time of 865 s. The value for `CCc1ccc(S(=O)(=O)N2CCC3(CC2)NCCN=C3NCc2ccccc2C)cc1` was 791 s. Under `CCCNC(=O)C1CCCN(c2nc3ncn(CC(=O)Nc4ccc(CC)cc4)c(=O)c3s2)C1` (centres undefined) stands 741 s; under `CC1=C(c2ccccc2)S(=O)(=O)N=C1N1CCCN(C(=O)NC2CCCCC2)CC1`, 817 s; under `CCOC(=O)c1c(S(=O)(=O)N2CCC(C(=O)NCc3cccs3)CC2)c(C)n(C)c1C`, 774 s. `O=C(c1cccs1)N1CCCC1c1nc(-c2ccccc2)no1` (centres undefined) came in with an RP-LC retention time of 946 s.

Turning to `CCOc1ccccc1NC(=O)C1CCN(S(=O)(=O)c2ccc3c(c2)sc(=O)n3CC)CC1`, the RP-LC retention time is 922 s.

The molecule `Cc1ccccc1CNS(=O)(=O)c1c[nH]c2ncccc12` came in with an RP-LC retention time of 730 s. `O=C(Cn1nc2c3ccccc3ncn2c1=O)Nc1ccc(Cl)cc1`: the RP-LC retention time worked out at 727 s. `Nc1cc(C2CCN(C(=O)Nc3ccccc3Br)CC2)no1` had an RP-LC retention time of 706 s. The value for `O=C(NCc1ccco1)c1ccc(NC(=O)C2CCC2)cc1N1CCOCC1` was 750 s.

In turn, `CCCn1c(C)cnc1C1CN(C(=O)c2cccs2)C1` registered an RP-LC retention time of 586 s. With `COc1c(C(=O)NC2CCCC2)sc2cccc(F)c12`, the RP-LC retention time stood at 1100 s. The value for `Cc1oc(C2CCN(C(=O)Nc3cccc(Cl)c3C)CC2)nc1C(=O)N1CCCC1` was 813 s. For `Cc1oc(-c2[nH]ncc2C(=O)N2CCCC2)cc1S(=O)(=O)Nc1ccc(F)c(F)c1`, the RP-LC retention time came out at 734 s. Under `CCC(=O)Nc1ccc2c(c1)CN(C(=O)c1ccccc1F)C(C(=O)N1CCCC1)C2` (centres undefined) stands 672 s. `CC(C)NC(=O)c1ccc(-c2ccc(N3CCSCC3)nc2)cc1` returned an RP-LC retention time of 663 s. Consider `Cc1c(-c2nnc(C(=O)NCCN3CCCCCC3)o2)oc2ccccc12`, for which the RP-LC retention time came to 667 s. The value for `O=C(CN1CCN(Cc2ccccc2)C1=O)NCC1CCCCC1` was 682 s; that for `Cc1ccc(/C=N/NC(=O)c2ccccc2Oc2ccccc2)o1` was 854 s.

`COc1ccc2cc(C(=O)N3CCN(c4cc(=O)n(C)c(=O)n4C)CC3)[nH]c2c1`: the RP-LC retention time worked out at 673 s. For the molecule `Cc1ccc(C)c(NC(=O)CCc2cccc3[nH]ccc23)c1`, the RP-LC retention time was found to be 879 s.

On to `COc1ccc(C2Cn3nnc(-c4nc(-c5ccc(F)cc5)no4)c3CO2)cc1` (centres undefined), for which the RP-LC retention time turned out to be 1130 s.

`COC(=O)c1sc2ccccc2c1NC(=O)c1cccc(OC)c1OC` yielded an RP-LC retention time of 1020 s.

`CCC(C)NC(=O)C1CCN(S(=O)(=O)c2cc(-c3noc(C(C)C)n3)sc2C)CC1` (centres undefined) yielded an RP-LC retention time of 1020 s. The molecule `CC(=O)Nc1ccc(C2(C(=O)NCc3ccccc3Cl)CCC2)cc1` showed an RP-LC retention time of 802 s. As for `CC(C)C(=O)N1CCN(c2ccc(=O)n(-c3ccc(C(C)C)cc3)n2)CC1`, the RP-LC retention time was determined as 834 s. As for `O=C(Cn1ccc2c(SCc3ccccc3)nccc21)N1CCN(c2ccc(F)cc2)CC1`, the RP-LC retention time amounted to 786 s. Under `CC(NC(=O)Cn1c(C(F)(F)F)nc2cc3c(cc21)OCCO3)c1ccc2c(c1)OCCCO2` (centres undefined) stands 855 s. The value for `O=C(NCc1ccc2c(c1)OCO2)c1ccc(-c2cc(N3CCOCC3)ncn2)cc1` was 643 s; that for `CCOC(=O)CCc1c(C)nn(-c2cc(N3CCOCC3)ncn2)c1C` was 863 s.

`CC(C)COc1nc2c(c(=O)n(C)c(=O)n2C)n1C` returned an RP-LC retention time of 865 s. Under `CC(C)(C)NC(=O)NCC(c1ccsc1)N1CCc2ccccc2C1` (centres undefined) stands 593 s; under `CCc1ccc(C2=C(C)C(N3CCCN(C(=O)c4cccs4)CC3)=NS2(=O)=O)cc1`, 893 s.

As to `O=C(Nc1cccc(Br)c1)NC1CCN(c2ccc(F)cc2)C1=O` (centres undefined), the RP-LC retention time was 818 s. The value for `CCOc1ccccc1CNC(=O)C1CCN(S(=O)(=O)c2ccc3[nH]c(=O)ccc3c2)CC1` was 750 s; that for `Cn1cnc(S(=O)(=O)N2CCC(C(=O)Nc3ccccc3)CC2)c1` was 675 s; that for `Cc1nc(-c2cccc(NC(=O)c3coc(NC(=O)c4ccco4)n3)c2)cs1` was 688 s. As for `CCc1nc(-c2csc(S(=O)(=O)N3CCCC(C(=O)Nc4nccs4)C3)c2)no1` (centres undefined), the RP-LC retention time turned out to be 884 s. The value for `COc1ccc(-c2c(C)noc2NC(C)=O)cc1S(=O)(=O)N1CCN(c2ccccn2)CC1` was 612 s; that for `C=CCN1CCN(C(=O)C2=NN(c3ccc(Cl)cc3)c3ncccc3S2(=O)=O)CC1` was 660 s. Under `O=C(NCc1ccc2c(c1)OCO2)C1CCN(C(=O)c2ncn3c2COC(c2ccccc2)C3)CC1` (centres undefined) stands 752 s. Under `O=C(NC1CCN(c2cc(-c3ccc(F)cc3)[nH]n2)C1)c1cccc(OC(F)(F)F)c1` (centres undefined) stands 840 s; under `CCC(C)NC(=O)c1ccc2c(ccn2C)c1` (centres undefined), 779 s; under `c1ccc(-c2n[nH]c(C3CCCN3)n2)cc1` (centres undefined), 546 s. In turn, `Cc1cccc(CN2CC=C(C(=O)N3CCN(c4cccc(C)c4)CC3)CC2)c1` yielded an RP-LC retention time of 706 s.

In turn, `Cc1ccc(-c2nc(-c3ccc4c(c3)oc(=O)n4C)no2)cc1F` registered an RP-LC retention time of 609 s. Regarding `COc1cc(OC)c(NC(=O)NC2CCN(c3ccc(F)cc3)C2=O)cc1Cl` (centres undefined), the RP-LC retention time came to 854 s. The value for `O=C1COc2ccccc2N1Cc1nc(-c2ccc3c(c2)OCO3)no1` was 934 s.

With `CC(C)CN1CCN(C(=O)C2CCCN(c3nnc4ccc(C(F)(F)F)cn34)C2)CC1` (centres undefined), the RP-LC retention time amounted to 614 s.

As for `c1cnc(N2CCN(c3nc4ccccc4s3)CC2)nc1`, the RP-LC retention time was determined as 809 s. Under `COc1ccc(NC(=O)Cn2cccc(-c3nc(-c4ccc(OC)c(OC)c4)no3)c2=O)cc1Cl` stands 814 s. Molecule `CC1=C(C(=O)OC(C)C)C(c2cccc(Oc3ccccc3)c2)NC(=O)N1` (centres undefined) displayed an RP-LC retention time of 938 s.

In turn, `CC1Oc2ccc(-c3csc(NC(=O)c4cccc(Br)c4)n3)cc2N(C)C1=O` (centres undefined) returned an RP-LC retention time of 960 s.

Take `O=C(NC1CC1)C1CCN(Cc2cc3ccccc3n2Cc2ccccc2)CC1`: the RP-LC retention time turned out to be 694 s.

Regarding `O=C(c1ccsc1)N1CCC2(CCC2N2CCOCC2)CC1` (centres undefined), the RP-LC retention time was found to be 581 s.

Turning to `COc1cccc(C(=O)NC2(C(F)(F)F)C(=O)N(CC(C)C)C3=C2C(=O)CC(C)(C)C3)c1` (centres undefined), the RP-LC retention time is 1040 s.

Molecule `O=C(N[C@@H]1CN(Cc2cc(F)c(F)cc2F)C[C@H]1CO)C1CCC1` came in with an RP-LC retention time of 599 s. As to `CCCN(C(=O)Nc1ccccc1[N+](=O)[O-])c1nc(-c2ccccc2)cs1`, the RP-LC retention time stood at 1400 s. For the molecule `CC1=C(C(=O)Nc2cccc(C(=O)N3CCN(c4ccccn4)CC3)c2)SCCO1`, the RP-LC retention time was 612 s. As for `CCOC(=O)c1c(N)n(Cc2cccc(OC)c2)c2nc3ccccc3nc12`, the RP-LC retention time amounted to 750 s. `O=C(Nc1ccc(N2CCN(C3CCCCC3)C2=O)nc1)c1ccc(F)c(F)c1`: the RP-LC retention time was 886 s.

`CCOc1ccc(S(=O)(=O)N2CCCC(C(N)=O)C2)cc1C` (centres undefined) yielded an RP-LC retention time of 747 s. Under `C=CCn1c(=O)c2ccccc2n(Cc2nc(-c3cccc(C)c3)no2)c1=O` stands 1080 s.

The molecule `COc1ccc(CNC(=O)CN2CCc3[nH]c4cc5c(cc4c(=O)c3C2)OCCO5)cc1OC` returned an RP-LC retention time of 585 s. Under `COc1ccccc1Cc1noc(C2CN(C(=O)CCc3c(C)noc3C)C2)n1` stands 738 s; under `Cc1cc(-c2nnc(NC(=O)c3cnn(-c4ccccc4)c3C)o2)c(C)o1`, 798 s. `CN(CCc1noc(C2CN(Cc3cccc(C(F)(F)F)c3)C2)n1)S(C)(=O)=O` showed an RP-LC retention time of 643 s.

`Fc1ccc(-c2ccc(CNCC3CCCO3)o2)cc1` (centres undefined) yielded an RP-LC retention time of 649 s.

As to `CCn1cc(-c2nc(C(=O)Nc3cc(F)cc(F)c3)cs2)c2cccnc21`, the RP-LC retention time came to 1180 s. Under `CC(C)C(=O)Nc1ccc(CCc2nc3ccc(C(=O)NC4CCCCC4)cc3[nH]2)cc1` stands 672 s; under `Cc1cnn(CCC(=O)N2CCCCCCNC(=O)[C@@H]3CCCC[C@@H]32)c1`, 728 s. On to `Cc1ccnc(N2CCC(C(=O)NCCCN3CCCCC3)CC2)n1`, for which the RP-LC retention time stood at 559 s. In the case of `COc1ccc(OC)c(S(=O)(=O)N2CCC(c3noc(-c4ccccc4C)n3)CC2)c1`, the RP-LC retention time was 1140 s. Turning to `CCn1cc(S(=O)(=O)Nc2ccc(C)cc2)c2cccnc21`, the RP-LC retention time is 838 s.

As for `CCc1ccc(N2C(=O)CN(S(C)(=O)=O)CC2(C)C(=O)NCc2ccc(F)cc2)cc1` (centres undefined), the RP-LC retention time is 834 s. `O=C(NC1CCCCCC1)C1CCCN(c2ccc(=O)n(-c3cccc(Cl)c3)n2)C1` (centres undefined) came in with an RP-LC retention time of 966 s. As for `CCS(=O)(=O)N1CCCc2cc(C(=O)NCCCOC)ccc21`, the RP-LC retention time is 700 s. Molecule `CCn1nccc1C(=O)N1CCCC1c1ccc(F)cc1` (centres undefined) gave an RP-LC retention time of 785 s.
